Consider 9 compounds from ChEMBL document CHEMBL5244230, “Artemisinin-derived hybrids and their anticancer activity” (Eur J Med Chem, 2020).

Data set [1] concerns EL4. As to the kind of experiment: Antiproliferative activity against mouse EL4 cells. Type of data set: functional, cell-based.
In data set [2] the test system is MCF7. As to the kind of experiment: Anticancer activity against human MCF7 cells. The data set is classed as functional, cell-based.
In data set [3] the test system is HT-29. As to the kind of experiment: Antiproliferative activity against human HT-29 cells. Type of data set: functional, cell-based.
For data set [4], the system named is PC-3. In words: Antiproliferative activity against human PC-3 cells. Type of data set: functional, cell-based.
Data set [5] is described as follows: Cytotoxicity against human HEK293 cells. Type of data set: toxicity, cell-based.
The test system of data set [6] is MDA-MB-231. As to the kind of experiment: Antiproliferative activity against human MDA-MB-231 cells. The data set is classed as functional, cell-based.
For data set [7], the system named is K562. As to the kind of experiment: Antiproliferative activity against human K562 cells. Type of data set: functional, cell-based.
Data set [8] concerns COLO 205. In words: Antiproliferative activity against human COLO 205 cells. Type of data set: functional, cell-based.
The test system of data set [9] is A549. As to the kind of experiment: Antiproliferative activity against human A549 cells. The data set is classed as functional, cell-based.
The test system of data set [10] is HEK293. In words: Antiproliferative activity against human HEK293 cells. The data set is classed as functional, cell-based.
Data set [11] deals with A-431. In words: Antiproliferative activity against human A-431 cells. Type of data set: functional, cell-based.
Data set [12] can be described thus: Cytotoxicity against CHO cells. The data set is classed as toxicity, cell-based, Cricetulus griseus. As to conditions: Chinese hamster.
Data set [13] concerns TK-10. As to the kind of experiment: Anticancer activity against human TK-10 cells. The data set is classed as functional, cell-based.
For data set [14], the system named is TK-10. In words: Anticancer activity against human TK-10 cells assessed as total growth inhibition. Type of data set: functional.
Data set [15] concerns UACC-62. In words: Anticancer activity against human UACC-62 cells assessed as total growth inhibition. Type of data set: functional.
The test system of data set [16] is UACC-62. As to the kind of experiment: Anticancer activity against human UACC-62 cells. The data set is classed as functional, cell-based.
The subject of data set [17] is MCF7. In words: Anticancer activity against human MCF7 cells assessed as total growth inhibition. Type of data set: functional.
Data set [18] in a line: Blood clearance in rat at 100 mg/kg, po. The data set is classed as ADME, organism-based.
In data set [19] the test system is SMMC-7721. As to the kind of experiment: Antiproliferative activity against human SMMC-7721 cells. The data set is classed as functional, cell-based.
In data set [20] the test system is HL-60. In words: Antiproliferative activity against human HL-60 cells. Type of data set: functional, cell-based.
In data set [21] the test system is HepG2. As to the kind of experiment: Antiproliferative activity against human HepG2 cells. The data set is classed as functional, cell-based.
Data set [22] is described as follows: Antiproliferative activity against human U-87 MG cells. The data set is classed as functional, cell-based, U-87MG ATCC.
Data set [23] relates to NCI-H460. As to the kind of experiment: Antiproliferative activity against human NCI-H460 cells. Type of data set: functional, cell-based.
For data set [24], the system named is HL-60. In words: Antiproliferative activity against human HL-60 cells assessed as reduction in cell viability measured after 72 hrs. The data set is classed as functional, cell-based. As to conditions: HL-60, 72 h.
The test system of data set [25] is P388/ADR. In words: Antiproliferative activity against mouse P388/ADR cells assessed as reduction in cell viability measured after 72 hrs. As to conditions: 72 h. The data set is classed as functional, cell-based.
Data set [26] in a line: Antiproliferative activity against mouse P388 cells assessed as reduction in cell viability measured after 72 hrs. Type of data set: functional, cell-based. As to conditions: 72 h.
For data set [27], the system named is P388. In words: Anticancer activity against mouse P388 cells. Type of data set: functional, cell-based.
Data set [28] deals with HL-60. As to the kind of experiment: Anticancer activity against human HL-60 cells. The data set is classed as functional, cell-based.
Data set [29] has as its system HT-29. In words: Antiproliferative activity against human HT-29 cells assessed as reduction in cell viability. The data set is classed as functional, cell-based.
In data set [30] the test system is MCF7. In words: Anticancer activity against human MCF7 cells assessed as inhibition of cell growth. The data set is classed as functional, cell-based.
Data set [31] in a line: Anticancer activity against human Lu1 cells. Type of data set: functional, cell-based.
The test system of data set [32] is HeLa. In words: Cytotoxicity against human HeLa cells assessed as cell viability incubated for 48 hrs by MTT assay. The data set is classed as functional, cell-based.
The subject of data set [33] is HeLa. As to the kind of experiment: Antiproliferative activity against human HeLa cells assessed as reduction in cell viability. Type of data set: functional, cell-based.
The nature of data set [34]: Antiproliferative activity against human 1205Lu cells. Type of data set: functional, cell-based.
Data set [35] has as its system Leukemia cell. As to the kind of experiment: Antiproliferative activity against human Leukemia cell assessed as reduction in cell viability. Type of data set: functional, cell-based.
Data set [36] relates to Ca9-22. As to the kind of experiment: Cytotoxicity against human Ca9-22 cells. Type of data set: functional, cell-based.
The test system of data set [37] is A 172. As to the kind of experiment: Cytotoxicity against human A-172 cells assessed as cell growth inhibition measured after 48 hrs by MTT assay. Type of data set: functional. A general note: Tetrazolium assays rely on reduction of a dye to a coloured formazan, in cell work by metabolically active cells.
For data set [38], the system named is SiHa. In words: Cytotoxicity against human SiHa cells assessed as cell growth inhibition measured after 48 hrs by MTT assay. Type of data set: functional.
In data set [39] the test system is HeLa. In words: Cytotoxicity against human HeLa cells assessed as cell growth inhibition measured after 48 hrs by MTT assay. The data set is classed as functional.
For data set [40], the system named is B16. As to the kind of experiment: Cytotoxicity against mouse B16 cells assessed as cell growth inhibition measured after 48 hrs by MTT assay. Type of data set: functional.
For data set [41], the system named is DLD-1. In words: Cytotoxicity against human DLD-1 cells assessed as cell growth inhibition measured after 48 hrs by MTT assay. The data set is classed as functional.
Data set [42] relates to HSC-2. In words: Cytotoxicity against human HSC-2 cells. Type of data set: functional, cell-based.
Data set [43] in a line: Cytotoxicity against human U87 cells assessed as cell growth inhibition measured after 48 hrs by MTT assay. The data set is classed as functional, U-87MG ATCC. As to conditions: U-87 MG.

Structures are written as SMILES. Converted amounts (≈) assume the structure as drawn. “And” between values parts separate entries of the source, which are not always exact repeats. Equal values may be shown once.

Regarding `C[C@H]1[C@H](CCS(=O)(=O)CC[C@H]2O[C@@H]3O[C@@]4(C)CC[C@H]5[C@H](C)CC[C@@H]([C@H]2C)[C@@]35OO4)O[C@@H]2O[C@@]3(C)CC[C@H]4[C@H](C)CC[C@@H]1[C@@]24OO3`, the IC50 in [1], in [2] and in data set [3] was 0.025 µM in each case.

Regarding `C[C@H]1[C@H](CCS(=O)(=O)CCCS(=O)(=O)CC[C@H]2O[C@@H]3O[C@@]4(C)CC[C@H]5[C@H](C)CC[C@@H]([C@H]2C)[C@@]35OO4)O[C@@H]2O[C@@]3(C)CC[C@H]4[C@H](C)CC[C@@H]1[C@@]24OO3`, the IC50 in data set [1], in data set [2] and in data set [3] was 0.38 µM throughout.

As for `C[C@H]1[C@@H](OCc2cn(-c3ccccc3C(=O)/C=C/c3ccccc3C(F)(F)F)nn2)O[C@@H]2O[C@@]3(C)CC[C@H]4[C@H](C)CC[C@@H]1[C@@]24OO3`, the IC50 (commonly the midpoint of a concentration-inhibition curve) in data set [4] was 4.06 µM; in data set [5], above 100 µg/mL; in [6] (Homo sapiens, MDA-MB-231), 4.06 µM; in data set [7] it was 4.06 µM; in data set [8] it was 4.06 µM; in data set [9], 4.06 µM. Also, the IC50 in data set [10] and in data set [11] was 4.06 µM throughout.

Take `C[C@H]1[C@@H](OCC[N+]2(CCO[C@H]3O[C@@H]4O[C@@]5(C)CC[C@H]6[C@H](C)CC[C@@H]([C@H]3C)[C@@]46OO5)CCN(CCNc3ccnc4cc(Cl)ccc34)CC2)O[C@@H]2O[C@@]3(C)CC[C@H]4[C@H](C)CC[C@@H]1[C@@]24OO3.[Br-]`: the GI50 in [2], in [13] and in [16] was 0.03 µM in each case. For the same compound, in data set [12], half-maximal inhibition (IC50) was put at 74.8 µM. Also, the TGI in data set [14], in data set [15] and in data set [17] was 2.21 µM in each case. In data set [18], the CL/F (commonly clearance divided by bioavailability, as obtained after extravascular dosing) was 287 L/h/kg.

As for `C[C@H]1[C@H](N2CCS(=O)(=O)[C@H](CCCCCCOC(=O)c3ccc([N+](=O)[O-])cc3C(=O)O)C2)O[C@@H]2O[C@@]3(C)CC[C@H]4[C@H](C)CC[C@@H]1[C@@]24OO3`, the midpoint of inhibition in data set [19], the IC50, lay at 0.06 µM.

Take `C[C@H]1[C@@H](NC(=O)CCCCCCC(=O)NO)O[C@@H]2O[C@@]3(C)CC[C@H]4[C@H](C)CC[C@@H]1[C@@]24OO3` (racemic): the IC50 in data set [2] came to 1.28 µg/mL; in data set [20], 1.28 µg/mL (≈ 2.82 µM); in data set [21] it was 1.28 µg/mL (≈ 2.82 µM).

Take `C[C@H]1[C@@H](O)O[C@@H]2O[C@@]3(C)CC[C@H]4[C@H](C)CC[C@@H]1[C@@]24OO3` [ARTENIMOL]: the IC50 in [22] stood at 5.29 µM; in [23], 5.29 µM; in [4], 15.7 µM; in data set [24], 0.299 µM; in data set [2] it was 39.9 µM; in data set [25], 20.7 µM. The IC50 is 15.7 µM and 5.29 µM in data set [6] (mda-mb-231); 0.4 µM in data set [19]; 15.7 µM in data set [7]; 15.7 µM in data set [8]; 1.5 µM in [26]; 5.29 µM in data set [9]. Moreover, the IC50 in data set [27] came to 39.9 µM; in [28], 39.9 µM; in data set [10] it was 15.7 µM; in [29] it was 5.29 µM; in data set [11], 15.7 µM; in [30] it was 39.9 µM. In data set [31], this compound returned an IC50 of 39.9 µM.

As to `C[C@H]1[C@H](OC(=O)CCC(=O)O)O[C@@H]2O[C@@]3(C)CC[C@H]4[C@H](C)CC[C@@H]1[C@@]24OO3` [ARTESUNATE], the IC50 in [32] amounted to 0.5 µM; in data set [33], 11.3 µM; in [34], 7.1 µM; in data set [35] it was 6.89 µM.

`CC(=O)O[C@H]1C(=O)[C@@]2(C)[C@H]([C@H](OC(=O)c3ccccc3)[C@]3(O)C[C@H](OC(=O)[C@H](O)[C@@H](NC(=O)c4ccccc4)c4ccccc4)C(C)=C1C3(C)C)[C@]1(OC(C)=O)CO[C@@H]1C[C@@H]2O` [PACLITAXEL]: the IC50 in data set [36] was above 100 µM; in data set [2] it was above 40 µM; in [42], above 100 µM. Moreover, the GI50 in [37], in data set [38], in data set [39], in data set [40], in [41] and in [43] was 0.01 µM in each case.
